Assay results as given in ChEMBL document CHEMBL1201862, “PubChem BioAssay data set” (2004).
Active and inactive are the calls of the source.

Tests used:
[1] = molecular target: T1, RNA-binding protein pos-1 (Caenorhabditis elegans, UniProt G5EF15); assay: inhibitors of POS-1/mex-3 RNA binding, dose response, biochemical, fluorescence polarization (AID 1964);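 further: purified POS-1 fused to maltose binding protein made in E. coli; potency of compounds blocking POS-1 binding to fluorescent RNA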
T1 sequence (G5EF15 whole entry): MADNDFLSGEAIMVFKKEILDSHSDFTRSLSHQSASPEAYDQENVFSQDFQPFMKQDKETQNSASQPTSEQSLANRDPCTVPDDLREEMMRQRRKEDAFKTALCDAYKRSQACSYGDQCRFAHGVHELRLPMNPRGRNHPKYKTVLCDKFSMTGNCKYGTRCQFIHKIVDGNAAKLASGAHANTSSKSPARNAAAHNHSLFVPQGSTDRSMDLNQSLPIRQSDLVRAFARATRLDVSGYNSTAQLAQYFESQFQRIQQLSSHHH

[2] = cytotoxicity in HEK-293T cells, dose response, cytotoxicity control for BCR NF-kB inhibitor project, luminescence, B-cell screen hits (AID 489021); type: functional, cell-based;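 further: HEK-293T cells carrying an NF-kB luciferase reporter; cells exposed to compound for about 14 hours before viability readout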
[3] = molecular target: T2, Endoribonuclease toxin MazF (Escherichia coli K-12, UniProt P0AE70); assay: fluorescent RNA oligo signal without MazF, dose response, counter-screen for MazEF activator project, biochemical, fluorescence, single-stranded RNase substrate (AID 588502); type: functional
T2 sequence (P0AE70 whole entry): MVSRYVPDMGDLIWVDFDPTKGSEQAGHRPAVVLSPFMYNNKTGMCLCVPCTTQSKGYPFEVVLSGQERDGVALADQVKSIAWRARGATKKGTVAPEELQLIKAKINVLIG

[4] = molecular target: T3, Zinc finger protein mex-5 (Caenorhabditis elegans, UniProt Q9XUB2); assay: MEX-5/TCR-2 RNA interaction inhibitors, dose response, biochemical, C. elegans, fluorescence polarization (AID 1960)
T3 sequence (Q9XUB2 whole entry): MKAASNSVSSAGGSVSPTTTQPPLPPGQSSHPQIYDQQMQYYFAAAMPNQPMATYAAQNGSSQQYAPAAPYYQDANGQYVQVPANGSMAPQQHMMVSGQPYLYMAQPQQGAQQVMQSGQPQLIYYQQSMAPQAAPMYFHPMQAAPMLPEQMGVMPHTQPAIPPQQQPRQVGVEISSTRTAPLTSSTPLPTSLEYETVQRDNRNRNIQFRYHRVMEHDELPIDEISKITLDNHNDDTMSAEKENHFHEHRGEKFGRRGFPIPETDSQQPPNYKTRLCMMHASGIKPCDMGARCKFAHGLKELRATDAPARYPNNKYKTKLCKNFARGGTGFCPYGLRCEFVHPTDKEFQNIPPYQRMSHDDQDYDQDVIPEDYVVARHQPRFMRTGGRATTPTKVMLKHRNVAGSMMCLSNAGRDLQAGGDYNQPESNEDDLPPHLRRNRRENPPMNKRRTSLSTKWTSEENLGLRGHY

[5] = molecular target: T2, Endoribonuclease toxin MazF; assay: MazF toxin RNase activators, dose response, biochemical, fluorescence, single-stranded RNA substrate, uHTS hits (AID 588481); type: functional
[6] = molecular target: Ras and Rab interactor 1/Tyrosine-protein kinase ABL1 (Homo sapiens, UniProt P00519+Q13671); type: functional;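 further: biochemical TR-FRET dose-response test measuring inhibition of binding between Rin1 and Abl proteins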
HEK293 [7] = assay: HEK cell cytotoxicity by LDH release, dose response, cytotoxicity control for IDE activator project, fluorescence, HEK cells (AID 588440); type: functional, cell-based; settings: Homo sapiens;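 further: cytotoxicity by LDH release measuring loss of membrane integrity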
Insulin-degrading enzyme [8] = molecular target: T4, Insulin-degrading enzyme (Homo sapiens, UniProt P14735); assay: activators of endogenous IDE in HEK cells, dose response, cell-based, fluorescence polarization (AID 588439); type: functional
T4 sequence (P14735 whole entry): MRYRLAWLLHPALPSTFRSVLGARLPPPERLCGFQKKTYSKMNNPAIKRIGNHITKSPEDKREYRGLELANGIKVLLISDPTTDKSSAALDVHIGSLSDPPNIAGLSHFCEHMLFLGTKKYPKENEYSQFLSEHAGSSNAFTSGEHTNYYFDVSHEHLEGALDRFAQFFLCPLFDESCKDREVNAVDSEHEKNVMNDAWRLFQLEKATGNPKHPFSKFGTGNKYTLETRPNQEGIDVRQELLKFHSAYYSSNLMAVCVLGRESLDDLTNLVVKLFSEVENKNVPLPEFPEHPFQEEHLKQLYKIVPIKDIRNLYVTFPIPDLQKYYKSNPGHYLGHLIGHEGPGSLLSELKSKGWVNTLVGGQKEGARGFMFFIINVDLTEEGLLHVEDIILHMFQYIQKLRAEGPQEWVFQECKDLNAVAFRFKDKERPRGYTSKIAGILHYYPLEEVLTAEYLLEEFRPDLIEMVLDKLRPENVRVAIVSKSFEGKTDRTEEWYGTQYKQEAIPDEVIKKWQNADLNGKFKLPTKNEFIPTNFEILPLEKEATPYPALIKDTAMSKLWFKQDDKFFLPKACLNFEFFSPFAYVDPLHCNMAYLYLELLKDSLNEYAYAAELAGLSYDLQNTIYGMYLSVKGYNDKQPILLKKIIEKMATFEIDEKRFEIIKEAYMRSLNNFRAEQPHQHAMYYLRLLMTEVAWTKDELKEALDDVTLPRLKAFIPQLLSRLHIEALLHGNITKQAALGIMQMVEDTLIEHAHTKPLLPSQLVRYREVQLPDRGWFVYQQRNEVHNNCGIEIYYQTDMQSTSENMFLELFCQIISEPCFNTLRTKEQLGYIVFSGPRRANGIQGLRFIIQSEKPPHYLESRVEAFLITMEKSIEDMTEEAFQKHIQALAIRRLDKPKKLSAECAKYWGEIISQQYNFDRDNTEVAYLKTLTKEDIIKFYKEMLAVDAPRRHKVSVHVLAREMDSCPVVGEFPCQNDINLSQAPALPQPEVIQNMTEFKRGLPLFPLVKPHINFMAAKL

HEK293 [9] = assay: optical interference in Abeta FP readout, dose response, artefact control for IDE activator project, biochemical, fluorescence polarization (AID 588442); type: functional, cell-based; settings: Homo sapiens
Cytochrome P450 2C9 = Cytochrome P450 2C9 (Homo sapiens, UniProt P11712)
Cytochrome P450 3A4 = Cytochrome P450 3A4 (Homo sapiens, UniProt P08684);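 further: CYP3A4 tested as one member of a cytochrome P450 panel screen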
Cytochrome P450 2D6 = Cytochrome P450 2D6 (Homo sapiens, UniProt P10635);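 further: CYP2D6 member of a cytochrome P450 panel assay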
Insulin-degrading enzyme [10] = molecular target: T4, Insulin-degrading enzyme; assay: activators of recombinant IDE enzyme, dose response, counter-screen for IDE activator project, biochemical, fluorescence polarization (AID 588681)
Caspase-3 = molecular target: T5, Caspase-3 (Homo sapiens, UniProt P42574); assay: SAR Analysis of small molecule inhibitors of Sentrin-specific proteases (SENPs) using a Caspase-3 Selectivity assay. [Related pubchem assays (depositor defined):AID2540, AID2599, AID434973, AID489001]; type: functional
T5 sequence (P42574 whole entry): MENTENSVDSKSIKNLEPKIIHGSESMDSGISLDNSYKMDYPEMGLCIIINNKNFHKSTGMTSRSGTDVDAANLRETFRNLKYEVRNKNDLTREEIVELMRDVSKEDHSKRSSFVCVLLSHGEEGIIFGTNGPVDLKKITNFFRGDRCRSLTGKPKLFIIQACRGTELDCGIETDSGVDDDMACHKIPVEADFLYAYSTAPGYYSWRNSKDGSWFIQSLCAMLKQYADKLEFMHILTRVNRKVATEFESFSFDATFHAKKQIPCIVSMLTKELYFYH

[11] = molecular target: T6, Sentrin-specific protease 8 (Homo sapiens, UniProt Q96LD8); assay: SENP8 protease inhibitors, SAR follow-up, biochemical, luminescence (AID 504501); type: functional
T6 sequence (Q96LD8 whole entry): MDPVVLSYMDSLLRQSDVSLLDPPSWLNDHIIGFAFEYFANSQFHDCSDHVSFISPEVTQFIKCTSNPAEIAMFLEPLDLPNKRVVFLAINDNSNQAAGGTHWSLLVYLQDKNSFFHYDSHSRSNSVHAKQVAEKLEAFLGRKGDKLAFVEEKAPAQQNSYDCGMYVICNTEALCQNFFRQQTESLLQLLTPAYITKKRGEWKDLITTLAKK

[12] = molecular target: T7, Sentrin-specific protease 6 (Homo sapiens, UniProt Q9GZR1); assay: SAR Analysis of small molecule inhibitors of Sentrin-specific protease 6 (SENP6) using a Luminescent assay. [Related pubchem assays (depositor defined):AID2582, AID2599]; type: functional
T7 sequence (Q9GZR1 whole entry): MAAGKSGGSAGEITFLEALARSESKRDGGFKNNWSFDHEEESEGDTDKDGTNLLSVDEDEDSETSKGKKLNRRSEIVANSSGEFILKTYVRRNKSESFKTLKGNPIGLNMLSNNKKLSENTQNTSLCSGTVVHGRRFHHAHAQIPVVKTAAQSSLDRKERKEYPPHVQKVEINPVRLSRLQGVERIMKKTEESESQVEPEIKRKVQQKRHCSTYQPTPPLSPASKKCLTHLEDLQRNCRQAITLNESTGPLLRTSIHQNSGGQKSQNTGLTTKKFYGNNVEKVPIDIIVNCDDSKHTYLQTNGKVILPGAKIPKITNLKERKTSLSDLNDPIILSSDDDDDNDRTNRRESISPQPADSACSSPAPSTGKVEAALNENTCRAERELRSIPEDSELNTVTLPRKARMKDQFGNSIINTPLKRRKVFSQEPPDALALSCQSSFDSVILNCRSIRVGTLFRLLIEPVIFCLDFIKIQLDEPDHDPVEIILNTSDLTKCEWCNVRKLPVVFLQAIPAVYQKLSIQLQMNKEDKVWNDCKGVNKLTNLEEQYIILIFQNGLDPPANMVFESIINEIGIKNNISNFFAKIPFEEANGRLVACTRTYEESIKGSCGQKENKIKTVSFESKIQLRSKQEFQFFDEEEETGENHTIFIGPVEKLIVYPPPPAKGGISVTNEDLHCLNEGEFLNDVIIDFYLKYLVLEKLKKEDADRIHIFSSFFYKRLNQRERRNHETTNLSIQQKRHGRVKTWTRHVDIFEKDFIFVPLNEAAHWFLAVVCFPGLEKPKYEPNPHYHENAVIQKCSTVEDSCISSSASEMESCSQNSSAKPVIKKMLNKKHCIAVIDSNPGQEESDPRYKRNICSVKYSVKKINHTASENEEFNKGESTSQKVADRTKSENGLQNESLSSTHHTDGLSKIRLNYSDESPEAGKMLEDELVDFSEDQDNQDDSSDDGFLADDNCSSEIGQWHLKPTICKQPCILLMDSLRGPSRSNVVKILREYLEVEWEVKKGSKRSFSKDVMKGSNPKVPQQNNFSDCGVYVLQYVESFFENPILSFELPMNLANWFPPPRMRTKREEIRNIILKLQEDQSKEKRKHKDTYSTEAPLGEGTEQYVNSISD

[13] = molecular target: T8, Sentrin-specific protease 7 (Homo sapiens, UniProt Q9BQF6); assay: SENP7 protease inhibitors, SAR follow-up, biochemical, luminescence (AID 504497); type: functional
T8 sequence (Q9BQF6 whole entry): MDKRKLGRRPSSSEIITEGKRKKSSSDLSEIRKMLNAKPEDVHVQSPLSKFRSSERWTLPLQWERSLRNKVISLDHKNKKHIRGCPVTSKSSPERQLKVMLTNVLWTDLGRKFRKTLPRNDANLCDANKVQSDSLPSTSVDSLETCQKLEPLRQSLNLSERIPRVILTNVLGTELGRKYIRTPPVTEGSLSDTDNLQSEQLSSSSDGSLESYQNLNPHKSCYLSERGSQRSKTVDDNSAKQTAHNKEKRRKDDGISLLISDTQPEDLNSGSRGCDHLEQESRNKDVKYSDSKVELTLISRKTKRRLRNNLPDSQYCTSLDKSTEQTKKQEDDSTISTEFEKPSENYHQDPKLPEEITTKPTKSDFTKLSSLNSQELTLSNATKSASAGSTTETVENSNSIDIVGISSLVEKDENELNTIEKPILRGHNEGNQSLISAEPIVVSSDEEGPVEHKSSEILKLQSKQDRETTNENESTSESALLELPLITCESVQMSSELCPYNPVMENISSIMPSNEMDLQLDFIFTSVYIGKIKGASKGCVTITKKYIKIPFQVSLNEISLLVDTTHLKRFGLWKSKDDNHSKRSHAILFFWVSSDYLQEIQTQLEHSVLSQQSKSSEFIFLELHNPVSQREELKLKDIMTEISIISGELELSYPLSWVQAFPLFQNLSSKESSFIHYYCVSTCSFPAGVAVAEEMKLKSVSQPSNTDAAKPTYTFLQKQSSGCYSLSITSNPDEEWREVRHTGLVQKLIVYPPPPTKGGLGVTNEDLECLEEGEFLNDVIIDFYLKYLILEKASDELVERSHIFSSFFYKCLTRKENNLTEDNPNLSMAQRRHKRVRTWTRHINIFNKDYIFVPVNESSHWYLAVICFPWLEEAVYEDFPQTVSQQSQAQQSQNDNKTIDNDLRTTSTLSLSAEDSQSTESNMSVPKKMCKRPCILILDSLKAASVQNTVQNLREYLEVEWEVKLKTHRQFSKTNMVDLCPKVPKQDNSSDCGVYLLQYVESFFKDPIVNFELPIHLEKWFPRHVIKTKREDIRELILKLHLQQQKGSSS

Ras and Rab interactor 1/Tyrosine-protein kinase ABL1, sequence (P00519 whole entry): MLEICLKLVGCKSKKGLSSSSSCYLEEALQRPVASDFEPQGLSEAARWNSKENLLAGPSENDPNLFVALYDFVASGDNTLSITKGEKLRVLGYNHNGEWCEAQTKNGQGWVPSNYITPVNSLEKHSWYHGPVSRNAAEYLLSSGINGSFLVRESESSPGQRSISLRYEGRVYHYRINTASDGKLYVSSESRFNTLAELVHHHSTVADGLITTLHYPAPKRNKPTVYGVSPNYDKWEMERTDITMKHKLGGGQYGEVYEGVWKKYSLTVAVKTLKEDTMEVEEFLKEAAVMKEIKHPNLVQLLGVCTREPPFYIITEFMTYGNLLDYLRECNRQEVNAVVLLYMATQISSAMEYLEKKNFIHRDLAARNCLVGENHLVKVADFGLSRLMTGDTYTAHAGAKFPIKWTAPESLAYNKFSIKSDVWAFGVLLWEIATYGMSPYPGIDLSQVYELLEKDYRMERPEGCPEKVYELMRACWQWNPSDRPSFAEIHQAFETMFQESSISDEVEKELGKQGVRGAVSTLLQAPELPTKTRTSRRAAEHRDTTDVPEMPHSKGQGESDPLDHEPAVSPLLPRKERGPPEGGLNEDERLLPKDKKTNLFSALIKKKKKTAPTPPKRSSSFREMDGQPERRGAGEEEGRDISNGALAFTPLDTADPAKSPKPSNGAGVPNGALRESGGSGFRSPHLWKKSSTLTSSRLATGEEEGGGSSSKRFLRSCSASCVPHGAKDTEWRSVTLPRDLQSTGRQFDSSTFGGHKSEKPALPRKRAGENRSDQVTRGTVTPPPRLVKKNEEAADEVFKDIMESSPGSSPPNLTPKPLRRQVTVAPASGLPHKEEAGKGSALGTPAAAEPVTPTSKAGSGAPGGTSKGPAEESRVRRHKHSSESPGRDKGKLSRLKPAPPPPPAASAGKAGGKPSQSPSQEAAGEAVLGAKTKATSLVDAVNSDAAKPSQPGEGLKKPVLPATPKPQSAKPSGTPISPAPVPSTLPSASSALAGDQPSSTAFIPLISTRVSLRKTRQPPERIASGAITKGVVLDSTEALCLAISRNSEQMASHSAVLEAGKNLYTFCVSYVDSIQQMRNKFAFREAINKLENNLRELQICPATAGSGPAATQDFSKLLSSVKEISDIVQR
Ras and Rab interactor 1/Tyrosine-protein kinase ABL1, sequence (Q13671 whole entry): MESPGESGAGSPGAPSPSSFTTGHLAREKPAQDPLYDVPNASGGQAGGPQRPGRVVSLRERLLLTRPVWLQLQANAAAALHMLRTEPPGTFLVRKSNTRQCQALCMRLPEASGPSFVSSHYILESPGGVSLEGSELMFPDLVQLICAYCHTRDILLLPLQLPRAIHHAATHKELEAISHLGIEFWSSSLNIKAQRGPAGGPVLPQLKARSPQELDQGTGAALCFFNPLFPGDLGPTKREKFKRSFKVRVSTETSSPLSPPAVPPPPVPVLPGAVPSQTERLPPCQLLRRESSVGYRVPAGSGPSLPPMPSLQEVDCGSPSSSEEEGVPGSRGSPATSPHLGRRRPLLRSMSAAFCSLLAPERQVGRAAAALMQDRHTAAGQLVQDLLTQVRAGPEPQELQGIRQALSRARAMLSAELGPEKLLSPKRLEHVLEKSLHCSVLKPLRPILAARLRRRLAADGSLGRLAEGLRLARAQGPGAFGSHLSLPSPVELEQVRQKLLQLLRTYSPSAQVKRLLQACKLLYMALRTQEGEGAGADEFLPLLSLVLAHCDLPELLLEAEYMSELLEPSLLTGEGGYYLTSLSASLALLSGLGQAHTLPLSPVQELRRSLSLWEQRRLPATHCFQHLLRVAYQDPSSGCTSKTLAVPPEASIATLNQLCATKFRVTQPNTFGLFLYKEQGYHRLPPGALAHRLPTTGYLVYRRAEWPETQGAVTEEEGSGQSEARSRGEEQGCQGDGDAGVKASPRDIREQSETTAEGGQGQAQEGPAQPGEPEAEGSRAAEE
Cytochrome P450 2C9, sequence (P11712 whole entry): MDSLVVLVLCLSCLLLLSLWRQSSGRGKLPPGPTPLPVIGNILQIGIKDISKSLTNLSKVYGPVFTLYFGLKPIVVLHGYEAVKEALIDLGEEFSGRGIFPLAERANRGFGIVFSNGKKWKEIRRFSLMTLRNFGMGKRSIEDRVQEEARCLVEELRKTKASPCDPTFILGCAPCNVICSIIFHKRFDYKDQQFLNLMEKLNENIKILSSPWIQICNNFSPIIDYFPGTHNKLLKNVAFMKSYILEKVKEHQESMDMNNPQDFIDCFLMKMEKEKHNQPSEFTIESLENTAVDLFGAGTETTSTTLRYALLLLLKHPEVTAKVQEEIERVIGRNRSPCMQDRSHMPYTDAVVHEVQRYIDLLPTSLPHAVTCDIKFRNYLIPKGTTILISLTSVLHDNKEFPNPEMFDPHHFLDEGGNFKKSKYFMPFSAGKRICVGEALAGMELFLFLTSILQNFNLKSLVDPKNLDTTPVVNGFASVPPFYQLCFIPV
Cytochrome P450 2D6, sequence (P10635 whole entry): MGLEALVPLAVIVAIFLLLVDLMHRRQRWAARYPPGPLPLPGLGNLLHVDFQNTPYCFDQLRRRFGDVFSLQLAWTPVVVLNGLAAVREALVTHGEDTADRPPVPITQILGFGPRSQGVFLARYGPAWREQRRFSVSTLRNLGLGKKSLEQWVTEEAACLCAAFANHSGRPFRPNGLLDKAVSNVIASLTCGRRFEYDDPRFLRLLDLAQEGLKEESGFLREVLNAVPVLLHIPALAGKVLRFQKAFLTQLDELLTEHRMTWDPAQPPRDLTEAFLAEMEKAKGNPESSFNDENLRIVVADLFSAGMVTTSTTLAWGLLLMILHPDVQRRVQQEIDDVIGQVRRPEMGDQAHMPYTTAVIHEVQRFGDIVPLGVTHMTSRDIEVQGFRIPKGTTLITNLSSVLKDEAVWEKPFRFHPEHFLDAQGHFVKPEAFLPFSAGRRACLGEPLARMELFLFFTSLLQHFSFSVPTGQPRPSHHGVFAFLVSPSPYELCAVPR
Cytochrome P450 3A4, sequence (P08684 whole entry): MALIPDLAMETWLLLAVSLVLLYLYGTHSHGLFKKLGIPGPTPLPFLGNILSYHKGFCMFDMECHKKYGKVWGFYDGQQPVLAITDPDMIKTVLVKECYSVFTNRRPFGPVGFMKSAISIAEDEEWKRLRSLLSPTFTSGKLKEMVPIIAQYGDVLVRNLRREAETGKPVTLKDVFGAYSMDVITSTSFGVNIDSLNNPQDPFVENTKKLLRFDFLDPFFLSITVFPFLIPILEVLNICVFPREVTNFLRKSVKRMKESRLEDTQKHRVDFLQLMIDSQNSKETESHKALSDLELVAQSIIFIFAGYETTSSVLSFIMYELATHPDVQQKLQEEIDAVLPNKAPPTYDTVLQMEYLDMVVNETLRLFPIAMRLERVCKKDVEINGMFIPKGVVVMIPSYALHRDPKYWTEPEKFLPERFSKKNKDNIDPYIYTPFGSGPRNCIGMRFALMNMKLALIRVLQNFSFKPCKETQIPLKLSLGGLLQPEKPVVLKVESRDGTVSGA

Row | SMILES | EC50 [1] | EC50 [3] | EC50 [4] | EC50 [5] | IC50 (HEK293 [7]) | EC50 (Insulin-degrading enzyme [8]) | EC50 (HEK293 [9]) | EC50 (Insulin-degrading enzyme [10]) | further results
1 | COc1ccccc1/C=C1/SC(=S)N(CCC(=O)Nc2cccnc2)C1=O | 69.2 µM (active) | > 99 µM (inactive) | 37.6 µM (inconclusive) | 52 µM (inactive) |  |  |  |  | IC50 [2]: > 80 µM (inactive)
2 | CCOC(=O)c1ccc(NC(=O)COc2ccccc2CNC2CCCC2)cc1 |  |  |  |  |  |  |  |  | IC50 [6]: 12.2 µM (inactive)
3 | CCCCn1nc2cc(C(=O)NCCCCc3ccccc3)ccc2c1OCC |  |  |  |  | > 89.2 µM (inactive) | 22.8 µM (inactive) | > 54.7 µM (inactive) | > 54.7 µM (inactive) | AC50 (Cytochrome P450 2C9): 31.6 µM (inconclusive); AC50 (Cytochrome P450 3A4): 6.31 µM (inconclusive); AC50 (Cytochrome P450 2D6): 3.98 µM (inconclusive)
4 | Cc1cccc(C(=O)NCCN2CCOCC2)c1[N+](=O)[O-] |  |  |  |  | > 89.1 µM (inactive) | > 54.6 µM (inactive) | > 54.6 µM (inactive) | > 54.6 µM (inactive) | 
5 | Cc1cccc(CN2C(=O)N/C(=C/c3ccc(C)s3)C2=O)c1 | 27.5 µM (active) | 87.8 µM (inactive) | > 300 µM (inconclusive) | > 99 µM (inactive) |  |  |  |  | 
6 | O=[N+]([O-])c1ccc(/N=C/c2c[nH]c3ccccc23)cc1 |  |  |  |  |  |  |  |  | IC50 (Caspase-3): > 99 µM (inactive); IC50 [11]: > 99 µM (inactive); IC50 [12]: > 99 µM (inactive); IC50 [13]: > 99 µM (inactive)
